# Source: US20230381139A1, “METHODS OF TREATING AND/OR PREVENTING ALZHEIMER’S DISEASE WITH R-CARVEDILOL” (priority 2020, published 2023)
# What was measured:
# 5×FAD+/− mice = assay: Learning and memory tests (Morris water maze, novel object recognition) in 5×FAD+/− mice; type: in vivo, mouse; conditions: for learning and memory impairments (MWM, NOR): 4-6 months old 5×FAD mice
# Method: Adult genetically engineered mice, 5×FAD^+/− (Oakley et al., 2006), RyR2-E4872Q^+/− (EQ^+/−) (Chen et al., 2014), 5×FAD^+/−/RyR2-E4872Q^+/− (5×FAD^+/−/EQ^+/−), and wildtype (WT) littermates of both sexes were used. R-carvedilol (R-CV) (at doses of 0.8, 1.6 or 3.2 mg/kg/day), racemic carvedilol (3.2 mg/kg/day), and vehicle control (DMSO) were delivered to 5×FAD^+/− mice in drinking water for one month, starting at different ages before (2-3 months old) or after (3-4 months old) the occurrence of AD pathologies (Oakley et al., 2006). To assess the effects of genetically and pharmacologically limiting RyR2 open time on the prevention and rescue of AD deficits in different stages (early, moderate, and late) of AD progression, animals at different ages (from 2-15 months) were used. As reported (Oakley et al., 2006), there was an age-dependence of AD progression in the 5×FAD^+/− mice. No sex-dependent differences in AD progression in these mice was observed. For 2-photon Ca^2+ imaging experiments, 5×FAD, RyR2 WT, and RyR2 mutant mice were cross-bred with the heterozygous Thy1-GCaMP6f transgenic mice (Chen et al., 2012; Chen et al., 2013) (GP5.17, JAX 025393) to express the GCaMP6f Ca^2+ sensing probe (driven by the Thy1 promotor) in hippocampal neurons in each of the genotypes used.
# (§1) The learning and memory of mice with all genotypes were evaluated using the Morris water maze (MWM) test, the Barnes maze (BM) test, and/or the novel object recognition (NOR) test. Experiments were carried out blindly. For the MWM test, mice at different ages were trained to localize a hidden escape platform (10×10 cm) in a circular pool (116.84 cm in diameter, 50 cm in depth) (San Diego Instruments, CA) via distal visual cue. The platform was submerged 1-2 cm beneath the surface in water (22-24°C.), which was rendered opaque by addition of milk powder. The localization of the pool in relation to visual cues was maintained constantly during the entire task. The cues were distinct in color and shape. Digital division of the tracking area (pool) into four quadrants was performed by the SMART video tracking system, Smart 3.0 (Panlab Harvard Apparatus; Barcelona Spain). The escape platform was placed in the centre of the south-west quadrant for the entirety of the learning phase (4 training days) and digitally defined as target. Spatial training consisted of 4 days with 5 trials per mouse per day. Mice were released with their heads facing the pool wall at one of four entry locations (north, east, south and west) in a non-repetitive random order. Swimming was automatically video-tracked until the subject found the escape platform and remained on it (≥5 sec), or until a maximum of 60 seconds. […] In between trials (inter-trial interval ≥10 min), mice were housed in heated cages to avoid performance deficits due to exhaustion or hypothermia. The latency and swimming speed to reach the escape platform were recorded for comparison. After the learning phase, memory retention was evaluated by one probe trial 24 hours after the last training session. The escape platform was removed before mice were released from the north entry point into the pool. Their swimming was video-tracked for 60 seconds. The area at the location of the removed hidden platform was defined as the target and the south-west quadrant the target quadrant. The percentage of time mice spent in the target quadrant (including the target) were measured for comparison.
# For the NOR test, mice were habituated for 10 min per mouse in an equally illuminated, odor-free, white, plastic box (40×40×50 cm^3) embedded with fresh aspen shavings and shreds. In between each mouse trial the box was wiped with ethanol to avoid odor-induced stress. 24 hours after habituation, two identical objects ware placed at equal distance to each other and the corners of the box. Each mouse was placed into the center, and allowed to move freely for 10 min. Mice were video recorded during this familiarizing phase. […]
# 3×TG+/− mice = assay: Learning and memory tests (Morris water maze, novel object recognition) in 3×TG+/− mice; type: in vivo, mouse; conditions: 12-15 months old 3×TG+/− mice, 3.2 mg/kg/day for one month; vs DMSO
# Method: Genetically engineered mice of 12-15 months old, 3×TG+/− (Oddo et al., 2003), RyR2-E4872Q+/− (EQ+/−)(Chen et al., 2014), 3×TG+/−/RyR2-E48720+/− (3×TG+/−/EQ+/−), and WT littermates of both sexes were used. Sex differences, which may produce biological variables, were not investigated in this study. R-carvedilol (R-CV) (3.2 mg/kg/day) and vehicle control (DMSO) were delivered to 3×TG+/− mice in drinking water for one month. As shown previously, only heterozygous RyR2-E4872Q+/− mutant mice were produced as homozygous E4872Q+/+mutation is embryonic lethal (Chen et al., 2014). Functional RyR2s are tetrameric channels formed by 4 RyR2 monomers. The heterozygous E4872Q+/− mutant mice (harboring one WT allele and one E4872Q mutant allele) will produce a mixture of homo- and hetero-tetrameric channels that contain the WT, E48720 mutant, or both WT/E4872Q mutant monomers. Thus, the RyR2-E4872Q mutation can exert its negative impact not only on the function of the E4872Q homo-tetramers, but also on the function of the WT monomer in the WT/E4872Q hetero-tetrameric channels.
# as §1, with “The area at the location of the removed hidden platform was defined as the target and the south-west quadrant the target quadrant.” left out
# For the NOR test, mice were habituated for 10 min per mouse in an equally illuminated, odor-free, white, plastic box (40×40×50 cm^3) embedded with fresh aspen shavings and shreds. […] Mice were video recorded during this familiarizing phase. Side preferences was evaluated by dividing the time a mouse spent exploring one object by the time they spent at the other object. […]
smiles,measurement,setting,value
"COc1ccccc1OCCNC[C@@H](O)COc1cccc2[nH]c3ccccc3c12 [R-carvedilol, R-(+)-carvedilol]","learning and memory impairments (MWM, NOR)","5×FAD+/− mice; 1.6 mg/kg/day for one month, vs DMSO",rescued
same,"memory loss / learning and memory deficits (MWM, NOR)","5×FAD+/− mice; 3.2 mg/kg/day for one month started at 2-3 months of age (before AD symptoms), tested at 3-4 months, vs DMSO",prevented
same,"memory loss (MWM, NOR)","5×FAD+/− mice; 3.2 mg/kg/day for one month started at 3-4 months of age (after AD symptom), tested at 4-5 months, vs DMSO",rescued
same,"learning and memory impairments (MWM, NOR)","5×FAD+/− mice; 3.2 mg/kg/day for one month, vs DMSO",rescued
same,"beneficial effect on learning and memory, dependence on dose","5×FAD+/− mice; 0.8, 1.6, 3.2 mg/kg/day for one month, 5×FAD mice",dose-dependent
same,"memory deficits (MWM, NOR)","5×FAD+/− mice; 6-7 and 10-12 months old 5×FAD+/− mice (late stages of AD), 3.2 mg/kg/day for 1 month, vs DMSO",rescued
same,discrimination index in the NOR test,3×TG+/− mice,increased
same,latency to the target platform in the MWM test,3×TG+/− mice,significantly shortened
same,swimming speed in the MWM test,3×TG+/− mice,increased
same,time spent in the target zone in the MWM test,3×TG+/− mice,increased
same,walking velocity in the NOR test,3×TG+/− mice,increased
